Values of other authors, collected in patent publication US7968545B2 (priority 2003, dated 2011).

Columns and labels:
[1] = human, in vivo
[2] = in vivo
[3] = in vivo; remark: listed apart in the source

Structure (SMILES) | share of patients in whom it works [1] | success rate for the treatment of pain [2] | reduction of infarct size [3]
NCC1(CC(=O)O)CCCCC1 [Gabapentin] | 60% | – | –
CSCC[C@@H]1NC(=O)[C@H](CC(C)C)NC(=O)[C@H](CCCNC(=N)N)NC(=O)[C@H](CO)NC(=O)[C@@H]2CSSC[C@@H]3NC(=O)[C@H](CO)NC(=O)CNC(=O)[C@H]([C@@H](C)O)NC(=O)[C@H](CSSC[C@H](N)C(=O)N[C@@H](CCCCN)C(=O)NCC(=O)N[C@@H](CCCCN)C(=O)NCC(=O)N[C@@H](C)C(=O)N[C@@H](CCCCN)C(=O)N2)NC(=O)[C@H](CSSC[C@@H](C(N)=O)NC(=O)[C@H](CCCCN)NC(=O)CNC(=O)[C@H](CO)NC(=O)[C@H](CCCNC(=N)N)NC3=O)NC(=O)[C@H](CC(=O)O)NC(=O)[C@H](Cc2ccc(O)cc2)NC1=O [Ziconotide, ω-conotoxin-MVIIA] | – | 85% | effective in reducing infarct size
